Read-outs that look alike come from different tables or passages of the source.
Key:
[1] = target: TNF-α converting enzyme (TACE) (Homo sapiens, UniProt P78536); assay: Test procedure for measuring TACE inhibition (fluorescent peptidyl substrate); type: biochemical
MMP-1 = target: T1, MMP-1 (Homo sapiens, UniProt P03956); assay: MMP-1 inhibition (thiopeptide or fluorescent peptide substrate); conditions: for inhibition at 10 µM: read-out: MMP1
T1 sequence (P03956 100-469): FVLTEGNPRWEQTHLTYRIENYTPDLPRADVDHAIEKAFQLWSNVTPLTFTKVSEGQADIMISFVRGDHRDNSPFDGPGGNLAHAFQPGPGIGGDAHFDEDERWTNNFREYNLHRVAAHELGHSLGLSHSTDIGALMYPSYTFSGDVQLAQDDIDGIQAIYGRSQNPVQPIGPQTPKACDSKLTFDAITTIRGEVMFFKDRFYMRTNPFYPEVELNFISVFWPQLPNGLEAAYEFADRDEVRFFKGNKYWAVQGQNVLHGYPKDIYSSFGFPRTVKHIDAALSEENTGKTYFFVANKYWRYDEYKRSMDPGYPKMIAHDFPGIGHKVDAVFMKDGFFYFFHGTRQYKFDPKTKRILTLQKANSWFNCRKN
Protocol: The enzyme activity is measured by the rate of the color increase. The thiopeptide substrate is made up fresh as a 20 mM stock in 100% DMSO and the DTNB is dissolved in 100% DMSO as a 100 mM stock and stored in the dark at room temperature. Both the substrate and DTNB are diluted together to 1 mM with substrate buffer (50 mM HEPES pH 7.5, 5 mM CaCl2) before use. The stock of enzyme is diluted with buffer (50 mM HEPES, pH 7.5, 5 mM CaCl2, 0.02% Brij) to the desired final concentration.
Alternatively, a fluorescent peptide substrate is used. In this test procedure, the peptide substrate contains a fluorescent group and a quenching group. Upon cleavage of the substrate by an MMP, the fluorescence that is generated is quantitated on the fluorescence plate reader. The assay is run in HCBC assay buffer (50mM HEPES, pH 7.0, 5 mM Ca^+2, 0.02% Brij, 0.5% Cysteine), with human recombinant MMP-1, MMP-9, or MMP-13. The substrate is dissolved in methanol and stored frozen in 1 mM aliquots. For the assay, substrate and enzymes are diluted in HCBC buffer to the desired concentrations. Compounds are added to the 96 well plate containing enzyme and the reaction is started by the addition of substrate.
For either the thiopeptide or fluorescent peptide test procedures, the slope of the line is calculated and represents the reaction rate. […] The mean (x±sem) of the control rate is calculated and compared for statistical significance (p<0.05) with drug-treated rates using Dunnett's multiple comparison test.

MMP-13 = MMP-13 (Homo sapiens, UniProt P45452); assay: MMP-13 inhibition (thiopeptide or fluorescent peptide substrate); type: biochemical; conditions: read-out: MMP13; for inhibition at 10 µM: % @ 10µM per footnote a
From the text: Alternatively, a fluorescent peptide substrate is used.

THP-1 cells = assay: Human monocytic THP-1 cell differentiation assay for soluble proteins (THP soluble protein assay), LPS-stimulated, TNF-α ELISA; type: cell-based; conditions: for THP (% inhibition): Table 1, concentration not given
From the text: Mitogenic stimulation of THP-1 cells cause differentiation into macrophage like cells with concomitant secretion of tumor necrosis factor (TNF-a) and TNF receptor (TNF-R p75/80 and TNF-R p55/60) and Interleukin-8 (IL-8), among other proteins. In addition, non-stimulated THP-1 cells shed both the p75/80 and the p55/60 receptors over time. The release of membrane bound TNF-a and possibly TNF-R p75/80 and TNF-R p55/60, but not IL-8, is mediated by an enzyme called TNF-α converting enzyme or TACE.
THP-1 cells (from ATCC) are a human monocytic cell line which were obtained from the peripheral blood of a person with acute monocytic leukemia. They can be grown in culture and differentiated into macrophage like cells by stimulation with mitogens.
Each vial of cells are cultured for about two weeks prior to being used for an assay and then are used for only 4 to 6 weeks to screen compounds.
Cell exposure to DMSO was limited to 0.1 % final concentration. […] Compounds can be evaluated for their effect on basal (non-stimulated) shedding of the receptors by replacing the LPS with […] of THP-1 media. Plates are placed into an incubator set at 5% CO2 and at 37°C. After 4 hours of incubation, […] of tissue culture supernatant (TCS) is removed for use in an TNF-α ELISA. Following 24 hours of incubation, […] of TCS is removed and used for analysis in TNF-R p75/80, TNF-R p55/60 and IL-8 ELISAs.
In addition, at the 24 hours timepoint, and the cells for each treatment group are collected by resuspension in 500 µl/well of THP-1 media and transferred into a FACS tube. […] The samples are run on a Becton Dickinson FaxCaliber FLOW cytometry machine and the amount of dye taken up by each cell is measured in the high red wavelength (FL3). Only cells with compromised membranes (dead or dying) can take up PI. The percent of live cells is calculated by the number of cells not stained with PI, divided by the total number of cells in the sample. The viability values calculated for the drug treated groups were compared to the viability value calculated for the vehicle treated mitogen stimulated group ("vehicle positive control") to determine the "percent change from control". This "percent change from control" value is an indicator of drug toxicity.
The quantity of soluble TNF-α, TNF-R p75/80 and TNF-R p55/60 and IL-8 in the TCS of the THP-1 cell cultures are obtained with commercially available ELISAs from R&D Systems, by extrapolation from a standard curve generated with kit standards. The number of cells that either take up or exclude PI are measured by the FLOW cytometry machine and visualized by histograms using commercially available Cytologic software for each treatment group including all controls.
Biological variability in the magnitude of the response of THP-1 cell cultures requires that experiments be compared on the basis of percent change from "vehicle positive control" for each drug concentration. Percent change in each soluble protein evaluated from the "vehicle positive control" was calculated for each compound concentration with the following formula: % Change =(pg/ml (compound) - pg/ml (veh pos control))/(pg/ml (veh pos control) - pg/ml (veh neg control))x 100 [formula]
For the soluble protein (TNF-a, p75/80, p55/60, IL-8) studies under stimulated conditions, the mean pg/ml of duplicate wells were determined and the results expressed as percent change from "vehicle positive control". For the soluble protein (p75/80 and p55/60 receptors) studies under non-stimulated conditions, the mean pg/ml of duplicate wells were determined and the results expressed as percent change from […] utilizing the following formula: % Change =(pg/ml (compound neg control) - pg/ml (veh neg control))/(pg/ml (veh neg control))X 100 [formula]
IC50 values for each compound are calculated by non-linear regression analysis using customized software utilizing the JUMP statistical package.

[2] = second table, IC50 (nM) per footnote a

Sequence of TNF-α converting enzyme (TACE) (P78536 215-824): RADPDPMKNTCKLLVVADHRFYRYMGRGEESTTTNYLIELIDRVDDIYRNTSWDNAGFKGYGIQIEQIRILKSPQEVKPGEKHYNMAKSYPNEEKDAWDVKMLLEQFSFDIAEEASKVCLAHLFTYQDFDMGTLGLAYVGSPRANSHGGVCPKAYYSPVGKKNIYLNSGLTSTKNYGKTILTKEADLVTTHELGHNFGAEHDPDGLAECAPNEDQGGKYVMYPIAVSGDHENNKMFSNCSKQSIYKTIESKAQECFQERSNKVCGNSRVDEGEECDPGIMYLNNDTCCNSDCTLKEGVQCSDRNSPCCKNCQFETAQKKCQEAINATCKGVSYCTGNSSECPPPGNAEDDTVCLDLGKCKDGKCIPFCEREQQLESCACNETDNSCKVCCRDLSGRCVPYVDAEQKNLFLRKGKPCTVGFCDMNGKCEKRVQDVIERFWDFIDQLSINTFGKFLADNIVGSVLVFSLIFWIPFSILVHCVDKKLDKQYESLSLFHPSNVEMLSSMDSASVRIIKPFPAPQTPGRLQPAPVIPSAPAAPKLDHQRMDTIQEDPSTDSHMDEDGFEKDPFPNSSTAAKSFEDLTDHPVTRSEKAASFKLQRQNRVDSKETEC

| Compound | IC50 ([1]; Table 1) [nM] | IC50 (MMP-1) [nM] | other results |
| --- | --- | --- | --- |
| CC#CCOc1ccc([S+]([O-])C(CCCCNC(=O)C2c3ccccc3Oc3ccccc32)C(=O)NO)cc1 (stereo not drawn) [Example 29, 9H-Xanthene-9-carboxylic acid [5-(4-but-2-ynyloxy-benzenesulfinyl)-5-hydroxycarbamoyl-pentyl]-amide] | 18.9 | 2000 | – |
| CC#CCOc1ccc(SC(C(=O)NO)c2ccc(OCC)cc2)cc1 (stereo not drawn) [Example 100, 2-{[4-(2-butynyloxy)phenyl]sulfanyl}-N-hydroxy-2-(4-ethoxyphenyl) acetamide] | – | – | inhibition at 10 µM (MMP-13): 15%; IC50 [1, 2]: 100 nM; inhibition at 10 µM (MMP-1): 2% |
| CC#CCOc1ccc(SC(C(=O)NO)C2CCCCC2)cc1 (stereo not drawn) [Example 73, 2-{[4-(2-butynyloxy)phenyl]sulfanyl}-2-cyclohexyl-N-hydroxyacetamide] | – | – | inhibition at 10 µM (MMP-1): 4.8%; inhibition at 3 µM (THP-1 cells; Homo sapiens, THP-1; at 3 uM; percent change from vehicle positive control; read-out: TNFalpha at 3 uM) THP (percent change)): 0% |
| CC#CCOc1ccc(OCCC(=O)NO)cc1 [Example 9, 3-(4-But-2-ynyloxy-phenoxy)-N-hydroxy-propionamide] | 30 | 10000 | THP (% inhibition) (THP-1 cells): 16% |
| CC#CCOc1ccc(CCCC(=O)NO)cc1 [Example 12, 4-(4-But-2-ynyloxy-phenyl)-N-hydroxy-butyramide] | – | 10000 | – |
| CC#CCOc1ccc([S+]([O-])[C@@H](C(=O)NO)c2ccc(Br)cc2)cc1 (single isomer, unassigned) [Example 87] | – | – | inhibition at 1 µM (MMP-13; % at 1 um (specified in cell)): 33%; IC50 [1, 2]: 336 nM; inhibition at 10 µM (MMP-1): 17% |
| CC#CCOc1ccc(SC(C)C(=O)NO)cc1 (stereo not drawn) [Example 4, 2-(4-But-2-ynyloxy-phenylsulfanyl)-N-hydroxy-propionamide] | 47.2 | – | THP (% inhibition) (THP-1 cells): 2% |
| CC#CCOc1ccc(SC(CCCCNC(=O)CCCc2cccs2)C(=O)NO)cc1 (stereo not drawn) [Example 18, 2-(4-But-2-ynyloxy-phenylsulfanyl)-6-(4-thiophen-2-yl-butyrylamino)-hexanoic acid hydroxyamide] | 36.9 | – | – |
| CC#CCOc1ccc(SC(C(=O)NO)c2cccc(Br)c2)cc1 (stereo not drawn) [Example 103, 2-{[4-(2-Butynyloxy)phenyl]sulfanyl}-N-hydroxy-2-(3-bromophenyl) acetamide] | – | – | inhibition at 10 µM (MMP-13): 12%; IC50 [1, 2]: 113 nM; inhibition at 10 µM (MMP-1): 4% |
| CC#CCOc1ccc(OCC(=O)NO)cc1 [Example 11, 2-(4-But-2-ynyloxy-phenoxy)-N-hydroxy-acetamide] | – | 10000 | – |
| CC#CCOc1ccc(S(=O)(=O)C(CCCCNC(=O)C(c2ccccc2)c2ccccc2)C(=O)NO)cc1 (stereo not drawn) [Example 40, 2-(4-But-2-ynyloxy-benzenesulfonyl)-6-diphenylacetylamino-hexanoic acid hydroxyamide] | 59.1 | – | – |
| CC#CCOc1ccc(S(=O)(=O)C(CCCCCC)C(=O)NO)cc1 (stereo not drawn) [Example 5, 2-(4-But-2-ynyloxy-benzenesulfonyl)-octanoic acid hydroxamide] | – | – | IC50 (MMP-1; read-out: MMP1 IC50, Table 1): 10000 nM; THP (% inhibition) (THP-1 cells): 6% |
| CC#CCOc1ccc(S(=O)(=O)C(CCCCNC(=O)CNC(=O)C(c2ccccc2)c2ccccc2)C(=O)NO)cc1 (stereo not drawn) [Example 62, 2-(4-But-2-ynyloxy-benzenesulfonyl)-6-(2-diphenylacetylamino-acetylamino)-hexanoic acid hydroxyamide] | 31.9 | – | – |
| CC#CCOc1ccc(SC(CCCCNC(=O)C(c2ccccc2)c2ccccc2)C(=O)NO)cc1 (stereo not drawn) [Example 20, 2-(4-But-2-ynyloxy-phenylsulfanyl)-6-diphenylacetylamino-hexanoic acid hydroxyamide] | 88.6 | – | – |
| CC#CCOc1ccc([S+]([O-])C(C(=O)NO)c2ccc(OCC)cc2)cc1 (stereo not drawn) [Example 101, 2-{[4-(2-Butynyloxy)phenyl]sulfinyl}-N-hydroxy-2-(4-ethoxyphenyl) acetamide] | – | – | inhibition at 10 µM (MMP-13): 51%; IC50 [1, 2]: 76 nM; inhibition at 10 µM (MMP-1): 8% |

Continued, in another order:

| IC50 ([1]; Table 1) [nM] | IC50 (MMP-1) [nM] | Compound | other results |
| --- | --- | --- | --- |
| 21.9 | 3900 | CC#CCOc1ccc([S+]([O-])C(CCCCNC(=O)CNC(=O)c2ccccc2CCc2ccccc2)C(=O)NO)cc1 (stereo not drawn) [Example 56] | – |
| 22.5 | 5600 | CC#CCOc1ccc([S+]([O-])C(CCCCNC(=O)CNC(=O)c2cccn2C)C(=O)NO)cc1 (stereo not drawn) [Example 61, 1-Methyl-1H-pyrrole-2-carboxylic acid {[5-(4-but-2-ynyloxy-benzenesulfinyl)-5-hydroxycarbamoylpentyl-carbamoyl]-methyl}-amide] | – |
| 20.1 | 4600 | CC#CCOc1ccc([S+]([O-])C(CCCCNC(=O)CNC(=O)CCCc2cccs2)C(=O)NO)cc1 (stereo not drawn) [Example 58] | – |
| 22.6 | 3400 | CC#CCOc1ccc([S+]([O-])C(CCCCNC(=O)CNC(=O)C2c3ccccc3Oc3ccccc32)C(=O)NO)cc1 (stereo not drawn) [Example 59] | – |
| 20.1 | 3300 | CC#CCOc1ccc([S+]([O-])C(CCCCNC(=O)C(c2ccccc2)c2ccccc2)C(=O)NO)cc1 (stereo not drawn) [Example 30, 2-(4-But-2-ynyloxy-benzenesulfinyl)-6-diphenylacetylamino-hexanoic acid hydroxyamide] | – |
| 43.5 | – | CC#CCOc1ccc([S+]([O-])C(CCCCNC(=O)c2ccccc2CCc2ccccc2)C(=O)NO)cc1 (stereo not drawn) [Example 25, N-[5-(4-But-2-ynyloxy-benzenesulfinyl)-5-hydroxycarbamoyl-pentyl]-2-phenethylbenzamide] | – |
| 21.2 | – | CC#CCOc1ccc(S(=O)(=O)C(CCCCNC(=O)CNC(=O)c2nccc3ccccc23)C(=O)NO)cc1 (stereo not drawn) [Example 68, Isoquinoline-1-carboxylic acid {[5-(4-but-2-ynyloxy-benzenesulfonyl)-5-hydroxycarbamoyl-pentylcarbamoyl]-methyl}-amide] | – |
| 24.4 | 4600 | CC#CCOc1ccc([S+]([O-])C(CCCCNC(=O)CNC(=O)Cc2ccc(Cl)c(Cl)c2)C(=O)NO)cc1 (stereo not drawn) [Example 57] | – |
| 20.5 | 3300 | CC#CCOc1ccc([S+]([O-])C(CCCCNC(=O)c2ccc3ccccc3n2)C(=O)NO)cc1 (mixture of isomers) [Example 23, Quinoline-2-carboxylic acid [5-(4-but-2-ynyloxy-benzenesulfinyl)-5-hydroxycarbamoyl-pentyl]-amide] | – |
| 35.9 | – | CC#CCOc1ccc(SC(CCCCNC(=O)CNC(=O)c2nccc3ccccc23)C(=O)NO)cc1 (stereo not drawn) [Example 50, Isoquinoline-1-carboxylic acid {[5-(4-but-2-ynyloxy-phenylsulfanyl)-5-hydroxycarbamoylpentylcarbamoyl]-methyl}-amide] | – |
| 15.2 | 4000 | CC#CCOc1ccc([S+]([O-])C(CCCCNC(=O)CNC(=O)c2cnc3ccccc3c2)C(=O)NO)cc1 (stereo not drawn) [Example 53] | – |
